{"source": "patent US20250042922A1", "about": "“KRAS MODULATING COMPOUNDS” (priority 2023, published 2025)", "key": {"[1]": {"tested_on": "cellular pERK in MIA-PaCa-2 (KRAS-G12C) cells", "experiment": "Cell based pERK assay, MIA-PaCa-2", "settings": "Homo sapiens; MIA-PaCa-2 (KRAS-G12C), 2 hours incubation, HTRF phospho-ERK1/2; read-out: MIAPaCa2 pERK EC50", "description": "(§1) Compounds were tested in a 384-well assay format for their ability to inhibit cellular pERK in Kuramochi (WT KRAS), MIA-PaCa-2 (KRAS-G12C), ASPC-1 (KRAS G12D), and NCI-H441 (KRAS-G12V) cell-lines. Compounds were serially diluted (1:3) in DMSO. On day −1, 80 μL of cells were plated per well in the 384 well tissue-culture plates (Greiner: Cat #781080) to seed 5000 cells per wells of AsPC-1 or 7500 cells of MIA-PaCa-2, NCI-H441, and Kuramochi cell lines in RPMI (Corning: Cat #10-040-CM) with 10% fetal bovine serum (FBS) (HyClone: Cat #SH30071-03) and 1× penicillin-streptomycin-glutamate (PSG) (Corning: Cat #30-009-CI) for […] and Kuramochi cell lines and DMEM (Corning: Cat #15-018-CM) with 10% FBS and 1×PSG for MIA-PaCa-2 cell line. The plates were then incubated overnight at 37° C. and 5% CO2. On day 0, 400 nL of compound/well was added into the cell plates and mixed 5 times by pipetting using a Beckmann Biomek FX. The cell plates were then incubated for 2 hours at 37° C. and 5% CO2. HTRF Advanced Phospho-ERK1/2 (THR202/TYR204) Detection Kits (PerkinElmer: Cat #64AERPEG) were used to prepare the lysis and detection solution according to manufacturer protocol. Following the 2 hour incubation, 70 μL of medium was aspirated from the plates and 10 uL of lysis and detection solution was added to the plates using a Biotek EL406 washer and dispenser. Plates were sealed and stored overnight at room temperature. HTRF ratio (665 nm/615 nm) was read by Envision multimode reader (PerkinElmer) the next day. The TR-FRET ratios were normalized to a positive (saturating concentration of known inhibitor) and negative (DMSO) control and plotted against the log of compound concentration."}, "[2]": {"tested_on": "cellular pERK in ASPC-1 (KRAS G12D) cells", "experiment": "Cell based pERK assay, ASPC-1", "settings": "Homo sapiens, ASPC1; ASPC-1 (KRAS G12D), 2 hours incubation, HTRF phospho-ERK1/2; read-out: AsPC1 pERK EC50", "description": "as §1"}, "[3]": {"tested_on": "cellular pERK in NCI-H441 (KRAS-G12V) cells", "experiment": "Cell based pERK assay, NCI-H441", "settings": "Homo sapiens; NCI-H441 (KRAS-G12V), 2 hours incubation, HTRF phospho-ERK1/2; read-out: H441 PERK EC50", "description": "as §1"}, "[4]": {"tested_on": "cellular pERK in Kuramochi (WT KRAS) cells", "experiment": "Cell based pERK assay, Kuramochi", "settings": "Kuramochi (WT KRAS), 2 hours incubation, HTRF phospho-ERK1/2; read-out: Kuramochi pERK EC50", "description": "as §1"}}, "data": [{"smiles": "C#Cc1c(F)ccc2cc(O)cc(-c3nc4c5c(nc(OCC67CCCN6CCC7)nc5c3F)N3C[C@@]5(F)CC[C@](F)(N5)[C@@H]3[C@@H](C)C4)c12", "note": "[Example 4-10, 5-ethynyl-6-fluoro-4-((5S,5aS,6R,9S)-1,6,9-trifluoro-5-methyl-12-((tetrahydro-1H-pyrrolizin-7a(5H)-yl)methoxy)-4,5,5a,6,7,8,9,10-octahydro-3,10a,11,13,14-pentaaza-6,9-methanonaphtho[1,8-ab]heptalen-2-yl)naphthalen-2-ol]", "values": [{"measurement": "EC50", "setting": "[1]", "result": 0.243, "unit": "nM"}, {"measurement": "EC50", "setting": "[2]", "result": 5.93, "unit": "nM"}, {"measurement": "EC50", "setting": "[3]", "result": 3.2, "unit": "nM"}, {"measurement": "EC50", "setting": "[4]", "result": 11.6, "unit": "nM"}]}, {"smiles": "C#Cc1c(F)ccc2cc(O)cc(-c3nc4c5c(nc(OC[C@@]67CCCN6C[C@H](F)C7)nc5c3F)N3C[C@@]5(F)CC[C@](F)(N5)[C@@H]3CC4)c12", "note": "[Example 4-20, 5-ethynyl-6-fluoro-4-((5aS,6R,9S)-1,6,9-trifluoro-12-(((2R,7aS)-2-fluorotetrahydro-1H-pyrrolizin-7a(5H)-yl)methoxy)-4,5,5a,6,7,8,9,10-octahydro-3,10a,11,13,14-pentaaza-6,9-methanonaphtho[1,8-ab]heptalen-2-yl)naphthalen-2-ol]", "values": [{"measurement": "EC50", "setting": "[1]", "result": 0.081, "unit": "nM"}, {"measurement": "EC50", "setting": "[2]", "result": 0.735, "unit": "nM"}, {"measurement": "EC50", "setting": "[3]", "result": 0.616, "unit": "nM"}, {"measurement": "EC50", "setting": "[4]", "result": 1.8, "unit": "nM"}]}, {"smiles": "CCc1c(F)ccc2cc(O)cc(-c3nc4c5c(nc(OC[C@@]67CCCN6C[C@H](F)C7)nc5c3F)N3C[C@@]5(F)CC[C@H](N5)[C@H]3CC4)c12", "note": "[Example 2-1, 4-((5aR,6S,9S)-1,9-difluoro-12-(((2R,7aS)-2-fluorotetrahydro-1H-pyrrolizin-7a(5H)-yl)methoxy)-4,5,5a,6,7,8,9,10-octahydro-3,10a,11,13,14-pentaaza-6,9-methanonaphtho[1,8-ab]heptalen-2-yl)-5-ethyl-6-fluoronaphthalen-2-ol]", "values": [{"measurement": "EC50", "setting": "[1]", "result": 3.01, "unit": "nM"}, {"measurement": "EC50", "setting": "[2]", "result": 55.5, "unit": "nM"}, {"measurement": "EC50", "setting": "[3]", "result": 4.44, "unit": "nM"}, {"measurement": "EC50", "setting": "[4]", "result": 1.41, "unit": "nM"}]}, {"smiles": "C#Cc1c(F)c(F)cc2cc(N)cc(-c3nc4c5c(nc(OCC67CCCN6CCC7)nc5c3F)N3C[C@@]5(F)CC[C@](F)(N5)[C@@H]3CC4)c12", "note": "[Example 4-35, 5-ethynyl-6,7-difluoro-4-((5aS,6R,9S)-1,6,9-trifluoro-12-((tetrahydro-1H-pyrrolizin-7a(5H)-yl)methoxy)-4,5,5a,6,7,8,9,10-octahydro-3,10a,11,13,14-pentaaza-6,9-methanonaphtho[1,8-ab]heptalen-2-yl)naphthalen-2-amine]", "values": [{"measurement": "EC50", "setting": "[1]", "result": 0.787, "unit": "nM"}, {"measurement": "EC50", "setting": "[2]", "result": 33.7, "unit": "nM"}, {"measurement": "EC50", "setting": "[3]", "result": 5.32, "unit": "nM"}, {"measurement": "EC50", "setting": "[4]", "result": 3.69, "unit": "nM"}]}, {"smiles": "C#Cc1c(F)ccc2cc(N)cc(-c3nc4c5c(nc(OCC67CCCN6CCC7)nc5c3F)N3C[C@@]5(F)CC[C@](F)(N5)[C@H]3CCC4)c12", "note": "[Example 4-6, 5-ethynyl-6-fluoro-4-((6aR,7R,10S)-1,7,10-trifluoro-13-((tetrahydro-1H-pyrrolizin-7a(5H)-yl)methoxy)-5,6,6a,7,8,9,10,11-octahydro-4H-3,11a,12,14,15-pentaaza-7,10-methanocyclohepta[4,5]cycloocta[1,2,3-de]naphthalen-2-yl)naphthalen-2-amine]", "values": [{"measurement": "EC50", "setting": "[1]", "result": 1.35, "unit": "nM"}, {"measurement": "EC50", "setting": "[2]", "result": 30.9, "unit": "nM"}, {"measurement": "EC50", "setting": "[3]", "result": 6.45, "unit": "nM"}, {"measurement": "EC50", "setting": "[4]", "result": 1.98, "unit": "nM"}]}, {"smiles": "C#Cc1c(F)ccc2cc(O)cc(-c3nc4c5c(nc(OC[C@@]67CCCN6C[C@H](F)C7)nc5c3F)N3C[C@@]5(F)CC[C@H](N5)[C@H]3C=C4C)c12", "note": "[Example 4-15, 4-((5aR,6S,9S)-1,9-difluoro-12-(((2R,7aS)-2-fluorotetrahydro-1H-pyrrolizin-7a(5H)-yl)methoxy)-4-methyl-5a,6,7,8,9,10-hexahydro-3,10a,11,13,14-pentaaza-6,9-methanonaphtho[1,8-ab]heptalen-2-yl)-5-ethynyl-6-fluoronaphthalen-2-ol]", "values": [{"measurement": "EC50", "setting": "[1]", "result": 4.05, "unit": "nM"}, {"measurement": "EC50", "setting": "[2]", "result": 98.3, "unit": "nM"}, {"measurement": "EC50", "setting": "[3]", "result": 21.8, "unit": "nM"}, {"measurement": "EC50", "setting": "[4]", "result": 4.42, "unit": "nM"}]}, {"smiles": "CCc1c(F)ccc2cc(O)cc(-c3nc4c5c(nc(OCC67CCCN6CCC7)nc5c3F)N3C[C@@]5(F)CC[C@](F)(N5)[C@H]3CCC4)c12", "note": "[Example 6-1, 5-ethyl-6-fluoro-4-((6aR,7R,10S)-1,7,10-trifluoro-13-((tetrahydro-1H-pyrrolizin-7a(5H)-yl)methoxy)-5,6,6a,7,8,9,10,11-octahydro-4H-3,11a,12,14,15-pentaaza-7,10-methanocyclohepta[4,5]cycloocta[1,2,3-de]naphthalen-2-yl)naphthalen-2-ol]", "values": [{"measurement": "EC50", "setting": "[1]", "result": 1.52, "unit": "nM"}, {"measurement": "EC50", "setting": "[2]", "result": 31.8, "unit": "nM"}, {"measurement": "EC50", "setting": "[3]", "result": 19.4, "unit": "nM"}, {"measurement": "EC50", "setting": "[4]", "result": 3.55, "unit": "nM"}]}, {"smiles": "C#Cc1c(F)ccc2cc(O)cc(-c3nc4c5c(nc(OC[C@@]67CCCN6C[C@H](F)C7)nc5c3F)N3C[C@@]5(F)CC[C@](F)(N5)[C@H]3CC4)c12", "note": "[Example 3-1, 5-ethynyl-6-fluoro-4-((5aR,6R,9S)-1,6,9-trifluoro-12-(((2R,7aS)-2-fluorotetrahydro-1H-pyrrolizin-7a(5H)-yl)methoxy)-4,5,5a,6,7,8,9,10-octahydro-3,10a,11,13,14-pentaaza-6,9-methanonaphtho[1,8-ab]heptalen-2-yl)naphthalen-2-ol]", "values": [{"measurement": "EC50", "setting": "[1]", "result": 0.89, "unit": "nM"}, {"measurement": "EC50", "setting": "[2]", "result": 3.27, "unit": "nM"}, {"measurement": "EC50", "setting": "[3]", "result": 1.25, "unit": "nM"}, {"measurement": "EC50", "setting": "[4]", "result": 1.13, "unit": "nM"}]}, {"smiles": "C#Cc1c(F)ccc2cc(O)cc(-c3nc4c5c(nc(OC[C@@]67CCCN6C[C@H](F)C7)nc5c3F)N3C[C@@]5(F)CC[C@H](N5)[C@H]3CC4)c12", "note": "[Example 1-1, 4-((5aR,6S,9S)-1,9-difluoro-12-(((2R,7aS)-2-fluorotetrahydro-1H-pyrrolizin-7a(5H)-yl)methoxy)-4,5,5a,6,7,8,9,10-octahydro-3,10a,11,13,14-pentaaza-6,9-methanonaphtho[1,8-ab]heptalen-2-yl)-5-ethynyl-6-fluoronaphthalen-2-ol]", "values": [{"measurement": "EC50", "setting": "[1]", "result": 3.27, "unit": "nM"}, {"measurement": "EC50", "setting": "[2]", "result": 38.2, "unit": "nM"}, {"measurement": "EC50", "setting": "[3]", "result": 4.93, "unit": "nM"}, {"measurement": "EC50", "setting": "[4]", "result": 2.68, "unit": "nM"}]}, {"smiles": "Oc1cc(-c2nc3c4c(nc(OCC56CCCN5CCC6)nc4c2F)N2C[C@@]4(F)CC[C@](F)(N4)[C@H]2CCC3)c2c(Cl)c(F)ccc2c1", "note": "[Example 4-27, 5-chloro-6-fluoro-4-((6aR,7R,10S)-1,7,10-trifluoro-13-((tetrahydro-1H-pyrrolizin-7a(5H)-yl)methoxy)-5,6,6a,7,8,9,10,11-octahydro-4H-3,11a,12,14,15-pentaaza-7,10-methanocyclohepta[4,5]cycloocta[1,2,3-de]naphthalen-2-yl)naphthalen-2-ol]", "values": [{"measurement": "EC50", "setting": "[1]", "result": 3.03, "unit": "nM"}, {"measurement": "EC50", "setting": "[2]", "result": 64.3, "unit": "nM"}, {"measurement": "EC50", "setting": "[3]", "result": 13.8, "unit": "nM"}, {"measurement": "EC50", "setting": "[4]", "result": 2.58, "unit": "nM"}]}, {"smiles": "C#Cc1c(F)ccc2cc(O)cc(-c3nc4c5c(nc(OC[C@@]67CCCN6C[C@H](F)C7)nc5c3F)N3C[C@@]5(F)CC[C@](F)(N5)[C@H]3CO4)c12", "note": "[Example 4-16, 5-ethynyl-6-fluoro-4-((5aR,6R,9S)-1,6,9-trifluoro-12-(((2R,7aS)-2-fluorotetrahydro-1H-pyrrolizin-7a(5H)-yl)methoxy)-5a,6,7,8,9,10-hexahydro-5H-4-oxa-3,10a,11,13,14-pentaaza-6,9-methanonaphtho[1,8-ab]heptalen-2-yl)naphthalen-2-ol]", "values": [{"measurement": "EC50", "setting": "[1]", "result": 157, "unit": "nM"}, {"measurement": "EC50", "setting": "[2]", "result": "> 1000", "unit": "nM"}, {"measurement": "EC50", "setting": "[3]", "result": "> 770", "unit": "nM"}, {"measurement": "EC50", "setting": "[4]", "result": 147, "unit": "nM"}]}]}
